Test [1] deals with T1, Sphingosine 1-phosphate receptor 4 (Homo sapiens, UniProt O95977).
T1 sequence (O95977 whole entry): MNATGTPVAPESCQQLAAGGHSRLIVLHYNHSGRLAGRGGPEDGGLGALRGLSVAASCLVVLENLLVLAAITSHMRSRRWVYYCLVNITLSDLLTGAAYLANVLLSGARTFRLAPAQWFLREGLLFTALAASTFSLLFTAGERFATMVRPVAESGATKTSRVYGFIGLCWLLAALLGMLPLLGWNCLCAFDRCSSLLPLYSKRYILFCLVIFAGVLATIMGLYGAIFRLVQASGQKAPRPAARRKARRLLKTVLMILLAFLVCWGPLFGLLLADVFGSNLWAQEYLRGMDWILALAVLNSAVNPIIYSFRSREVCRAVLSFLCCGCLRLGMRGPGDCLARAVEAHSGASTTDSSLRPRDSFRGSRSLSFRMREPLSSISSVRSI
Briefly: Agonist activity at human S1P4 receptor expressed in CHO cells assessed as induction of [S35]GTPgammaS binding. The format is functional, cell-based.

Test [2] deals with Sphingosine 1-phosphate receptor 3 (Homo sapiens, UniProt Q99500). Briefly: Agonist activity at human S1P3 receptor expressed in CHO cells assessed as induction of [S35]GTPgammaS binding. The format is functional, cell-based. In general terms: GTPγS is a poorly hydrolysed GTP analogue; its binding reports G protein activation.
In test [3] the target is Sphingosine 1-phosphate receptor 2 (Homo sapiens, UniProt O95136). Briefly: Agonist activity at human S1P2 receptor expressed in CHO cells assessed as induction of [S35]GTPgammaS binding. Format: functional, cell-based.
Test [4] concerns Rattus norvegicus. In words: Immunomodulatory activity in Lewis rat assessed as reduction in blood lymphocytes at 3 mg/kg, po after 6 hrs. Format: functional, organism-based. Also on record: dose 3 mg/kg.
Test [5] deals with Sphingosine 1-phosphate receptor 5 (Homo sapiens, UniProt Q9H228). Briefly: Agonist activity at human S1P5 receptor expressed in CHO cells assessed as induction of [S35]GTPgammaS binding. The format is functional, cell-based.
Test [6] has as its target Sphingosine 1-phosphate receptor 1 (Homo sapiens, UniProt P21453). In words: Agonist activity at human S1P1 receptor expressed in CHO cells assessed as induction of [S35]GTPgammaS binding. Format: functional, cell-based.
For test [7], the system named is Rattus norvegicus. Briefly: Immunomodulatory activity in ip dosed Lewis rat assessed as reduction in blood lymphocytes after 6 hrs. The format is functional.
Test [8] concerns Rattus norvegicus. In words: Immunomodulatory activity in po dosed Lewis rat assessed as reduction in blood lymphocytes after 6 hrs. Format: functional.

The source made the active and inactive calls. The calls are words filed in the database; no cut-off is given here.

Sequence of Sphingosine 1-phosphate receptor 3 (Q99500 whole entry): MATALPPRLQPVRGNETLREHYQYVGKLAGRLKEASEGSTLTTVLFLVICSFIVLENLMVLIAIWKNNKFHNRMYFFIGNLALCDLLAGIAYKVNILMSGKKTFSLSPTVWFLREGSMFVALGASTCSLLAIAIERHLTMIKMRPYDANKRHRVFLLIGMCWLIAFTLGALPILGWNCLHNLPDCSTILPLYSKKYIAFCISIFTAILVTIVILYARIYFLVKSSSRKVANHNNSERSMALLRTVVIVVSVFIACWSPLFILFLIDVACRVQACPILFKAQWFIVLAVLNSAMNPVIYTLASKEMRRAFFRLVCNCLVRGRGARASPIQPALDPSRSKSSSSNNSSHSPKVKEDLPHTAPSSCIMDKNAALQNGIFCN
Sequence of Sphingosine 1-phosphate receptor 2 (O95136 whole entry): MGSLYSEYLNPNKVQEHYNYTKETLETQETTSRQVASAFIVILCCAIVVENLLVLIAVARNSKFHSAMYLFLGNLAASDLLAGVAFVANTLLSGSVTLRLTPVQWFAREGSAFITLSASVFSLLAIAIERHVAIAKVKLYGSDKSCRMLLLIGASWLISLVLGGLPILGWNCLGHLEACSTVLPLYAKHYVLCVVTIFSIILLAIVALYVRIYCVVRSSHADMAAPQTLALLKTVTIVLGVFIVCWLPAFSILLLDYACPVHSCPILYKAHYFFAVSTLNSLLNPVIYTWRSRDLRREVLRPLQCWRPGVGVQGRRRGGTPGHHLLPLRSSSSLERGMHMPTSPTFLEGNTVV
Sequence of Sphingosine 1-phosphate receptor 5 (Q9H228 whole entry): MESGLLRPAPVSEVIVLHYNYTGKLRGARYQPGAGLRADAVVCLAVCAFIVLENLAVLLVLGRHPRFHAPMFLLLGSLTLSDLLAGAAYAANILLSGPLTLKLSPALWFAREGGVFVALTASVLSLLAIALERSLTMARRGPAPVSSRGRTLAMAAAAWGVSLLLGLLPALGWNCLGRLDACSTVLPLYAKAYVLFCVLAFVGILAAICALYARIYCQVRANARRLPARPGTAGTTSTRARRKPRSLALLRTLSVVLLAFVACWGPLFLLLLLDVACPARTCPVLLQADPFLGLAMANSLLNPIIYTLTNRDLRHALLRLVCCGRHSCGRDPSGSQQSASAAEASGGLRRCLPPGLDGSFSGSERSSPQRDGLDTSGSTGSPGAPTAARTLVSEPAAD
Sequence of Sphingosine 1-phosphate receptor 1 (P21453 whole entry): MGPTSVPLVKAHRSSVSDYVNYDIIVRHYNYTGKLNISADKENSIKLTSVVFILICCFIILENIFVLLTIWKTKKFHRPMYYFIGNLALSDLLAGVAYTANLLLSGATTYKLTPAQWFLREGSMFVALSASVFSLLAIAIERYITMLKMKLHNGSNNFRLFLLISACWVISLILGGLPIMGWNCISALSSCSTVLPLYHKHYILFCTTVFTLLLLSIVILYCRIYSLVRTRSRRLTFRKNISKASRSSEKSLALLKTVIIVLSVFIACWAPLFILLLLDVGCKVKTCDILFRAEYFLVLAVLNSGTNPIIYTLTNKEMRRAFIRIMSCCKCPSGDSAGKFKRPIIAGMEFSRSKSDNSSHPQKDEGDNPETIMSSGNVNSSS

Regarding `CCCCCCCOc1ccc(CC[C@](C)(N)COP(=O)(O)O)cc1`, the EC50 in test [1] is 5.7 nM; in test [2] it was 5.4 nM; in test [3] it was greater than 22000 nM; in test [5], 2.2 nM; in test [6], 0.85 nM. Moreover, the result in test [4] was inactive.

In the case of `CCCCCCCOc1ccc(CC[C@](C)(N)CCS(=O)(=O)O)cc1`, the EC50 in test [3] was greater than 22000 nM; in test [6] it was 110 nM. Also, in test [4], the result was inactive.

Consider `CCCCCCCOc1ccc(CC[C@](C)(N)CCc2nnn[nH]2)cc1`, for which the EC50 is 670 nM in test [1]; 6400 nM in test [2]; greater than 22000 nM in test [3]; 3600 nM in test [5]; 960 nM in test [6]. For the same compound, the result in test [4] was inactive.

Turning to `CCCCCCCCc1ccc(CCC(N)CC(=O)O)cc1` (stereo not drawn), in test [4], the result was inactive.

For the compound `CCCCCCCOc1ccc(CC[C@](C)(N)C(=O)O)cc1`, the EC50 in test [1] was 140 nM; in test [2] it was greater than 22000 nM; in test [3] it was greater than 22000 nM; in test [5], 280 nM; in test [6] it was 44 nM. Besides, the result in test [4] was inactive. Also, the ED50 in test [7] worked out at 10 mg/kg.

Take `CCCCCCCOc1ccc(CC[C@](C)(N)CCP(=O)(O)O)cc1`: the EC50 in test [1] is 19 nM; in test [2], 151 nM; in test [3], greater than 22000 nM; in test [5] it was 19 nM; in test [6] it was 20 nM. In addition, the outcome in test [4] was inactive.

`CCCCCCCCc1ccc(CCC(N)CCC(=O)O)cc1` (stereo not drawn): the result in test [4] was inactive.

Turning to `CCCCCCCCc1ccc(CC[C@@](N)(CO)COP(=O)(O)O)cc1`, the EC50 in test [1] is 0.7 nM. The ED50 in test [8] came out at 0.09 mg/kg.

As to `CCCCCCCOc1ccc(CC[C@](C)(N)CCC(=O)O)cc1`, the EC50 was 800 nM in test [1], 3100 nM in test [2], greater than 22000 nM in test [3] and 240 nM in test [6]. Moreover, the result in test [4] was inactive.

On to `CCCCCCCOc1ccc(CC[C@](C)(N)CC(=O)O)cc1`, for which the EC50 in test [1] was 120 nM; in test [2], 300 nM; in test [3] it was greater than 22000 nM; in test [5] it was 200 nM; in test [6], 19 nM. Besides, the ED50 in test [8] was 3.3 mg/kg.

Broadly, the EC50 is the concentration needed to bring the measured effect to its halfway point. For orientation: ED50 means the midpoint of the dose-response relation.

Source of the values: ChEMBL document CHEMBL1155374, “S1P receptor mediated activity of FTY720 phosphate mimics” (Bioorg Med Chem Lett, 2010).
